Measured values as given in patent US4057684A, “Alkyl amino-glucopyranoside derivative and process for producing the same” (priority 1975, dated 1977).

Columns and labels:
[1] = tested on: adenocarcinoma-755 (Ca-755); test: antitumor effect against adenocarcinoma-755 (Ca-755) implanted in mice; assay type: in vivo, mouse (BDF1)
Source text: (§1) Results of pharmacological studies for amino-glucopyranoside [I] according to the invention are described below. The test compounds which were used included methyl N-carbamyl-N'-(2-chloroethyl)-N'-nitroso-2-amino-2-deoxy-α-D-glucopyranoside and methyl N-carbamyl-N'-(2-chloroethyl)-N'-nitroso-6-amino-6-deoxy-α-D-glucopyranoside (hereinafter abbreviated to 2MCαG and 6MCαG, respectively). The control compounds which were employed were 1-(2-chloroethyl)-3-cyclohexyl-1-nitrosoourea (hereinafter abbreviated to CCNU), which had been widely applied as a control compound in such a pharmacological test of the streptozotocin derivatives, and GCNU referred to previously. The tumor systems which were used were leukemia L-1210, Nakahara-Fukuoka sarcoma, adenocarcinoma-755, ascites sarcoma 180 and Ehrlich ascites carcinoma (hereinafter abbreviated to L-1210, NFS, Ca-755, S-180A and EAC, respectively), and the antitumor activities were determined by a procedure of the National Cancer Center, Tokyo (A. Hoshi et al.: Farumashia 9, 464(1973)). The test animals which were used were ICR and BDF1 mice.
(§2) ^a Treatment was initiated 24 hr after implantation of tumor (day 1):
(§3) D1~5 = qd, day 1~5; D1 = day 1 only.
(§4) ^b T/C is expressed as the tumor weight ratio in solid tumors or tota
(§5) packed cell volume ratio in ascites tumors of treated/control.

[2] = peripheral white blood cell counts (bone marrow toxicity) and survival in normal male ICR mice; assay type: in vivo, mouse (ICR)
Procedure: Such peripheral white blood cell counts were performed as follows: Normal male ICR mice were used in groups of tens and the test compounds for treatment were made into their respective solutions. 2MCαG and 6MCαG were dissolved in physiological saline solutions, while CCNU and GCNU were suspended in 0.5% CMC aqueous solution and 50% PEG aqueous solution, respectively. A single administration at volume of 1 ml per 100 g body weight of animal (0.1 ml/10 g) was given intraperitoneally, and the peripheral white blood cell counts were performed 3, 8 and 15 days after administration of the test compounds.

[3] = tested on: Nakahara-Fukuoka sarcoma (NFS); test: antitumor effect against Nakahara-Fukuoka sarcoma (NFS) implanted in mice; assay type: in vivo, mouse (ICR)
Source text: as §1, §2, §3, §4, §5

[4] = tested on: Ehrlich ascites carcinoma (EAC); test: antitumor effect against Ehrlich ascites carcinoma (EAC) implanted in mice; assay type: in vivo, mouse (ICR)
Source text: as §1, §2, §3, §4, §5

leukemia L-1210 = test: increase in life span and survival of leukemia L-1210 implanted mice; assay type: in vivo, mouse (BDF1)
Source text: as §1, §2, §3
^d % increase in life span (mean survival time) over controls.
^e 60 days survivors/total in treated group.

bacteria = test: antibacterial activity, broth dilution method
[5] = blood sugar level / diabetogenic activity; assay type: in vivo, rat (male Wister); details: rat, in vivo
[6] = tested on: ascites sarcoma 180 (S-180A); test: antitumor effect against ascites sarcoma 180 (S-180A) implanted in mice; assay type: in vivo, mouse (ICR)
Source text: as §1, §2, §3, §4, §5

[7] = tested on: solid as well as ascites tumor systems; test: antitumor activity in the tumor systems (overall); assay type: in vivo, mouse; details: for antitumor activity compared with its α-anomer: vs α-anomer; for antitumor activity compared with the compounds of examples 1 and 4: mouse, in vivo
Source text: as §1

[8] = 10.0 mg/kg/day ip D1~5, BDF1 mice
[9] = 25.0 mg/kg/day ip D1~5, BDF1 mice
[10] = 12.0 mg/kg/day ip D1~5, ICR mice
[11] = 20.0 mg/kg/day ip D1~5, ICR mice
[12] = 8.5 mg/kg/day ip, 5 successive days, BDF1 mice
[13] = 3.2 mg/kg/day ip, 5 successive days
[14] = 12.5 mg/kg/day ip D1~5, ICR mice

In the case of `O=NN(CCCl)C(=O)NC1CCCCC1` [CCNU, 1-(2-chloroethyl)-3-cyclohexyl-1-nitrosoourea, reference compound], the Activity [1, 8] is reported as “+++ (20~0% = +++)”, the T/C [1, 8] is reported as 15.0% and the Activity [1, 9] is reported as “Toxic”. For the same molecule, the T/C [1, 9] was 1.1%, the died/used [1, 9] was 6/6 and the “Death rate (death/used)” value ([2]; 20 mg/kg ip single) was 0/10. The “Average count of WBC” value ([2]; 20 mg/kg ip single, day 3) was 38.7±2.9 x 10^2 WBC/mm^3, the “Average count of WBC” value ([2]; 20 mg/kg ip single, day 8) was 81.8±5.0 x 10^2 WBC/mm^3 and the “Average count of WBC” value ([2]; 20 mg/kg ip single, day 15) was 100.4±9.8 x 10^2 WBC/mm^3. The “Death rate (death/used)” value ([2]; 40 mg/kg ip single) was 1/10, the “Average count of WBC” value ([2]; 40 mg/kg ip single, day 3) was 31.5±1.7 x 10^2 WBC/mm^3 and the “Average count of WBC” value ([2]; 40 mg/kg ip single, day 8) was 59.0±6.0 x 10^2 WBC/mm^3. For the same molecule, the “Average count of WBC” value ([2]; 40 mg/kg ip single, day 15) was 77.9±9.0 x 10^2 WBC/mm^3, the “Death rate (death/used)” value ([2]; 60 mg/kg ip single) was 9/10 and the “Average count of WBC” value ([2]; 60 mg/kg ip single, day 3) was 27.9±3.7 x 10^2 WBC/mm^3. The “Average count of WBC” value ([2]; 60 mg/kg ip single, day 8) was 60.0 x 10^2 WBC/mm^3, the “Average count of WBC” value ([2]; 60 mg/kg ip single, day 15) was 36.0 x 10^2 WBC/mm^3 and the “Death rate (death/used)” value ([2]; 80 mg/kg ip single) was 10/10. For the same molecule, the “Average count of WBC” value ([2]; 80 mg/kg ip single, day 3) was 20.4±2.5 x 10^2 WBC/mm^3, the Activity [3, 10] was “+ (70~51% = +)” and the T/C [3, 10] was 57.5%. The Activity [3, 11] was “++ (50~21% = ++)” and the T/C [3, 11] was 48.3%.
With `CO[C@H]1O[C@H](CNC(=O)N(CCCl)N=O)[C@@H](O)[C@H](O)[C@H]1NC(=O)N(CCCl)N=O` [Example 3] the Activity [4, 12] was “++ or +++”, the ILS (leukemia L-1210; 2.2 mg/kg/day ip, 5 successive days) was 400% and the ILS (leukemia L-1210; 4.5 mg/kg/day orally) was 370%. For the same molecule, the 60-days survivors (leukemia L-1210; single ip, 7~15 mg/kg) was “all six animals tested survived”, the ILS (leukemia L-1210; single ip, 7~15 mg/kg) was 717% and the antibacterial activity (bacteria) was “void of antibacterial activities”. The Activity [1, 12] was “++ or +++”, the “bone marrow toxicity compared with CCNU” value ([2]; mouse, in vivo) was “less than that of CCNU” and the “bone marrow toxicity compared with GCNU” value ([2]; mouse, in vivo) was “comparable to GCNU”. For the same molecule, the diabetogenic activity [5] was “nondiabetogenic”, the Activity [6, 12] was “++ or +++” and the Activity [3, 12] was “++ or +++”.
In the case of `CO[C@@H]1O[C@H](CO)[C@@H](O)[C@H](O)[C@H]1NC(=O)N(CCCl)N=O` [Example 4, methyl N-carbamyl-N'-(2-chloroethyl)-N'-nitroso-2-amino-2-deoxy-β-D-glucopyranoside], the “accumulation of ascites tumor cells” value [4, 13] is reported as “ascites cells accumulation was not detectable”, the Activity [4, 14] is reported as “++ or +++” and the “antitumor activity compared with its α-anomer” value [7] is reported as 110~120%. For the same molecule, the ILS (leukemia L-1210; 3.2 mg/kg/day ip D1~5) was 480%, the ILS (leukemia L-1210; 6.3 mg/kg/day po D1~5) was 385% and the 60-days survivors (leukemia L-1210; single ip, 8~25 mg/kg) was “all six test animals surviving after 60-days”. The ILS (leukemia L-1210; single ip, 8~25 mg/kg) was 717%, the antibacterial activity (bacteria) was “not found to be either diabetogenic or exhibited any antibacterial activities” and the Activity ([1]; 12.5 mg/kg/day ip D1~5, BDF1 mice) was “++ or +++”. For the same molecule, the “bone marrow toxicity, less than the α-anomer” value ([2]; LD10 dosage) was 5~20%, the “peripheral white blood cell count, higher than that of the α-anomer” value ([2]; LD10 dosage, 3, 8 and 15 days) was 5~20% and the diabetogenic activity [5] was “not found to be either diabetogenic”. The “accumulation of ascites tumor cells” value [6, 13] was “ascites cells accumulation was not detectable”, the Activity [6, 14] was “++ or +++” and the Activity [3, 14] was “++ or +++”.
With `CO[C@@H]1O[C@H](CNC(=O)N(CCCl)N=O)[C@@H](O)[C@H](O)[C@H]1NC(=O)N(CCCl)N=O` [Example 7, methyl di-N,N'-[N-(2-chloroethyl)-N-nitroso-carbamyl]-2,6-di-amino-2,6-di-deoxy-3-D-glucopyranoside] the “antitumor activity compared with its α-anomer” value [7] was 5~20%, the antibacterial activity (bacteria) was “neither diabetogenic nor antibacterial activities” and the “bone marrow toxicity compared with its α-anomer” value ([2]; vs compound of example 3) was “reduced bone marrow toxicities”. The diabetogenic activity [5] was “neither diabetogenic nor antibacterial activities”.
In the case of `CCCCO[C@@H]1O[C@H](CO)[C@@H](O)[C@H](O)[C@H]1NC(=O)N(CCCl)N=O` [Example 9 3-anomer, n-butyl N-carbamyl-N'-(2-chloroethyl)-N'-nitroso-2-amino-2-deoxy-3-D-glucopyranoside], the “antitumor activity compared with the compounds of examples 1 and 4” value [7] is reported as “same level of anitumor activity”, the antibacterial activity (bacteria) is reported as “neither diabetogenic nor antibacterial activities” and the “bone marrow toxicity compared with the compounds of examples 1 and 4” value ([2]; mouse, in vivo) is reported as “same low levels”. The diabetogenic activity [5] was “neither diabetogenic nor antibacterial activities”.
For `CCCCO[C@H]1O[C@H](CO)[C@@H](O)[C@H](O)[C@H]1NC(=O)N(CCCl)N=O` [Example 9 α-anomer, n-butyl N-carbamyl-N'-(2-chloroethyl)-N'-nitroso-2-amino-2-deoxy-α-D-glucopyranoside], the “antitumor activity compared with the compounds of examples 1 and 4” value [7] was “same level of anitumor activity”, the antibacterial activity (bacteria) was “neither diabetogenic nor antibacterial activities” and the “bone marrow toxicity compared with the compounds of examples 1 and 4” value ([2]; mouse, in vivo) was “same low levels”. The diabetogenic activity [5] was “neither diabetogenic nor antibacterial activities”.
For `CO[C@@H]1O[C@H](CNC(=O)N(CCCl)N=O)[C@@H](O)[C@H](O)[C@H]1O` [Example 12, methyl N-carbamyl-N'-(2-chloroethyl)-N'-nitroso-6-amino-6-deoxy-β-D-glucopyranoside], the “antitumor activity compared with its α-anomer” value [7] was 110~120%, the antibacterial activity (bacteria) was “neither diabetogenic nor antibacterial activities” and the “reduced bone marrow toxicity compared with its α-anomer” value ([2]; vs α-anomer) was 110~120%. For the same molecule, the diabetogenic activity [5] was “neither diabetogenic nor antibacterial activities”.
